Data published in US9993001B2, “Herbicidal composition” (ISHIHARA SANGYO KAISHA, LTD., priority 2014, dated 2018).

How the values were obtained:
Format in all cases: in vivo
polygonaceae weeds = test: Test Example 10: corn field, soil treatment, metobromuron + pendimethalin; conditions: 600 g/ha; soil treatment, corn field; 49th day after treatment; read-out: Growth inhibition rate of Polygonaceae weeds (%) Measured value
Text: (§1) When the herbicidal activity in a case where two active ingredients are combined, is larger than the simple sum of the respective herbicidal activities of the two active ingredients (the expected activity), it is called a synergistic effect. The activity expected by the combination of two active ingredients can be calculated as follows (Colby S. R., “Weed”, vol. 15, p. 20-22, 1967). E=α+β−(α×β[…]) where α: growth inhibition rate when treated with x (g/ha) of herbicide X, • β: growth inhibition rate when treated with y (g/ha) of herbicide Y, • E: growth inhibition rate expected when treated with x (g/ha) of herbicide X and y (g/ha) of herbicide Y.
(§2) On the 19th day after treatment, the state of growth of barnyardgrass was visually observed and evaluated in accordance with the following standards. The growth inhibition rate (%) [measured value] and the growth inhibition rate (%) [calculated value] calculated by the Colby's method, are shown in Table 2.
(§3) Growth inhibition rate (%)=inhibition rate) (%) of 0 (equivalent to the non-treated area) to 100 (complete kill) […]
On the 49th day after treatment, the state of growth of polygonaceae weeds which occurred naturally, was visually observed and evaluated in the same manner as in Test Example 1, The results are shown in Table 11.

[1] = system: large crabgrass (Digitaria sanquinalis L.); test: Test Example 28: pot, soil treatment, metobromuron + pendimethalin; conditions: 62.5 g/ha, soil treatment, pot, 27th day after treatment, read-out: Growth inhibition rate of large crabgrass (%) Measured value
Text: as §1, §2
(§4) Growth inhibition rate (%)=inhibition rate) (%) of 0 (equivalent to the non-treated area) to 100 (complete kill)
(§5) Soil was put into a 1/300,000 ha pot, and seeds of large crabgrass (Digitaria sanquinalis L.) were sown. On the day after seeding, predetermined amounts of SC containing metobromuron as active ingredient (same as in Test Example 1) and EC containing pendimethalin as active ingredient (same as in Test Example 10) were diluted with water corresponding to 1,000 L per hectare and applied for soil treatment.
On the 27th day after treatment, the state of growth of large crabgrass was visually observed and evaluated in the same manner as in Test Example 1.

[2] = system: barnyardgrass (Echinochloa crus-qalli L.); test: Test Example 1: soybean field, soil treatment, metobromuron + chlorpropham; conditions: 916 g/ha, soil treatment, soybean field, 19th day after treatment, read-out: Growth inhibition rate of barnyardgrass (%) Measured value
Text: When the herbicidal activity in a case where two active ingredients are combined, is larger than the simple sum of the respective herbicidal activities of the two active ingredients (the expected activity), it is called a synergistic effect. The activity expected by the combination of two active ingredients can be calculated as follows (Colby S. R., “Weed”, vol. 15, p. 20-22, 1967). E=α+β−(α×β[…]) where α: growth inhibition rate when treated with x (g/ha) of herbicide X, • β: growth inhibition rate when treated with y (g/ha) of herbicide Y, • E: growth inhibition rate expected when treated with x (g/ha) of herbicide X and y (g/ha) of herbicide Y. […]
as §2, with “2. […]” for “2.”

[3] = system: barnyardgrass (Echinochloa crus-galli L.); test: Test Example 15: pot, soil treatment, metobromuron + chlorpropham; conditions: 750 g/ha, soil treatment, pot, 21st day after treatment, read-out: Growth inhibition rate of barnyardgrass (%) Measured value
Text: as §1, §2, §4
(§6) Soil was put into a 1/300,000 ha pot, and seeds of barnyardgrass (Echinochloa crus-galli L.) were sown. […]
(§7) On the 21st day after treatment, the state of growth of barnyardgrass was visually observed and evaluated in the same manner as in Test Example 1.

[4] = system: giant foxtail (Setaria faberi Herrm.); test: Test Example 16: pot, soil treatment, metobromuron + chlorpropham; conditions: soil treatment, pot, 21st day after treatment, read-out: Growth inhibition rate of giant foxtail (%) Measured value
Text: as §1, §2, §4
as §5, with “barnyardgrass (Echinochloa crus-galli” for “large crabgrass (Digitaria sanquinalis”, “chlorpropham” for “pendimethalin”, “1)” for “10)”
as §7
The test was carried out in the same manner as in Test Example 15 except that barnyardgrass (Echinochloa crus-galli L.) was changed to giant foxtail (Setaria faberi Herrm.), to obtain the results as shown in Table 17.

[5] = system: black nightshade (Solanum nigrum L.); test: Test Example 17: pot, soil treatment, metobromuron + chlorpropham; conditions: soil treatment, pot, 21st day after treatment, read-out: Growth inhibition rate of black nightshade (%) Measured value
Text: as §1, §2, §4
as §5, with “barnyardgrass (Echinochloa crus-galli” for “large crabgrass (Digitaria sanquinalis”, “chlorpropham” for “pendimethalin”, “1)” for “10)”
as §7
The test was carried out in the same manner as in Test Example 15 except that barnyardgrass (Echinochloa crus-galli L.) was changed to black nightshade (Solanum nigrum L.), to obtain the results as shown in Table 18.

[6] = system: barnyardgrass (Echinochloa crus-galli L.); test: Test Example 18: pot, soil treatment, metobromuron + chlorpropham; conditions: 500 g/ha, soil treatment, pot, 26th day after treatment, read-out: Growth inhibition rate of barnyardgrass (%) Measured value
Text: as §1, §2, §4, §6
(§8) On the 26th day after treatment, the state of growth of barnyardgrass was visually observed and evaluated in the same manner as in Test Example 1.

[7] = system: annual bluegrass (Poa annua L.); test: Test Example 19: pot, soil treatment, metobromuron + chlorpropham; conditions: 250 g/ha, soil treatment, pot, 26th day after treatment, read-out: Growth inhibition rate of annual bluegrass (%) Measured value
[8] = system: common lambsquarters (Chenopodium album L.); test: Test Example 20: pot, soil treatment, metobromuron + chlorpropham; conditions: soil treatment, pot, 26th day after treatment, read-out: Growth inhibition rate of common lambsquarters (%) Measured value
Text: as §1, §2, §4
as §5, with “barnyardgrass (Echinochloa crus-galli” for “large crabgrass (Digitaria sanquinalis”, “chlorpropham” for “pendimethalin”, “1)” for “10)”
as §8
The test was carried out in the same manner as in Test Example 18 except that barnyardgrass (Echinochloa crus-galli L.) was changed to common lambsquarters (Chenopodium album L.), to obtain the results as shown in Table 21.

[9] = system: barnyardgrass (Echinochloa crus-galli L.); test: Test Example 32: pot, soil treatment, metobromuron + chlorpropham; conditions: soil treatment, pot, 26th day after treatment, read-out: Growth inhibition rate of barnyardgrass (%) Measured value
Text: as §1, §2, §4
as §5, with “barnyardgrass (Echinochloa crus-galli” for “large crabgrass (Digitaria sanquinalis”, “chlorpropham” for “pendimethalin”, “1)” for “10)”
as §8

[10] = system: large crabgrass (Diqitaria sanquinalis L.); test: Test Example 11: corn field, foliar treatment, metobromuron + nicosulfuron; conditions: Digitaria sanguinalis; 30 g/ha; foliar treatment at 1.5 to 2.0 leaf stage, corn field; 30th day after treatment; read-out: Growth inhibition rate of large crabgrass (%) Measured value
Text: as §1, §2, §3
On the 30th day after treatment, the state of growth of large crabgrass was visually observed and evaluated in the same manner as in Test Example 1.

[11] = system: common purslane (Portulaca oleracea L.); test: Test Example 12: corn field, soil treatment, metobromuron + nicosulfuron; conditions: 30 g/ha, soil treatment, corn field, 30th day after treatment, read-out: Growth inhibition rate of common purslane (%) Measured value
Text: as §1, §2, §3
On the 30th day after treatment, the state of growth of common purslane (Portulaca oleracea L.) which occurred naturally, was visually observed and evaluated in the same manner as in Test Example 1.

[12] = system: spotted knotweed (Polygonum lapathifolium L.); test: Test Example 2: soybean field, soil treatment, metobromuron + S-metolachlor; conditions: Persicaria lapathifolia; 1000 g/ha; soil treatment, soybean field; 50th day after treatment; read-out: Growth inhibition rate of spotted knotweed (%) Measured value
Text: as §1, §2, §3
On the 50th day after treatment, the state of growth of spotted knotweed was visually observed and evaluated in the same manner as in Test Example 1.

[13] = system: Nepalese Smartweed (Persicaria nepalensis (Meisn.) H. Gross); test: Test Example 3: soybean field, soil treatment, metobromuron + S-metolachlor; conditions: 1000 g/ha, soil treatment, soybean field, 50th day after treatment, read-out: Growth inhibition rate of Nepalese Smartweed (%) Measured value
Text: as §1, §2, §3
On the 50th day after treatment, the state of growth of Nepalese Smartweed (Persicaria nepalensis (Meisn.) H. Gross) which occurred naturally, was visually observed and evaluated in the same manner as in Test Example 1.

[14] = system: Nepalese Smartweed (Persicaria nepalensis (Meisn.) H. Gross); test: Test Example 6: adzuki bean field, soil treatment, metobromuron + S-metolachlor; conditions: 1000 g/ha, soil treatment, adzuki bean field, 39th day after treatment, read-out: Growth inhibition rate of Nepalese Smartweed (%) Measured value
Text: as §1, §2, §4
In an adzuki bean agricultural field (9.6 square meters per one test section), predetermined amounts of SC containing metobromuron as active ingredient (same as in Test Example 1) and EC containing S-metolachlor as active ingredient (same as in Test Example 2) were diluted with water corresponding to 1,000 L per hectare and applied for soil treatment, prior to germination of adzuki bean and weeds.
On the 39th day after treatment, the state of growth of Nepalese Smartweed (Persicaria nepalensis (Meisn.) H. Gross) which occurred naturally, was visually observed and evaluated in the same manner as in Test Example 1.

[15] = system: common lambsquarters (Chenopodium album L.); test: Test Example 8: corn field, soil treatment, metobromuron + S-metolachlor; conditions: 1000 g/ha, soil treatment, corn field, 28th day after treatment, read-out: Growth inhibition rate of common lambsquarters (%) Measured value
Text: as §1, §2, §3
On the 28th day after treatment, the state of growth of common lambsquarters (Chenopodium album L.) which occurred naturally, was visually observed and evaluated in the same manner as in Test Example 1.

[16] = system: redroot pigweed (Amaranthus retroflexus L.); test: Test Example 9: corn field, soil treatment, metobromuron + S-metolachlor; conditions: 1000 g/ha, soil treatment, corn field, 49th day after treatment, read-out: Growth inhibition rate of redroot pigweed (%) Measured value
Text: as §1, §2, §3
On the 49th day after treatment, the state of growth of redroot pigweed (Amaranthus retroflexus L.) which occurred naturally, was visually observed and evaluated in the same manner as in Test Example 1.

## CCC(CC)Nc1c([N+](=O)[O-])cc(C)c(C)c1[N+](=O)[O-] [Pendimethalin, N-(1-ethylpropyl)-2,6-dinitro-3,4-xylidine]
Polygonaceae weeds
  inhibition at 600 g/ha: 73%
[1]
  inhibition at 62.5 g/ha: 70%

## CC(C)OC(=O)Nc1cccc(Cl)c1 [Chlorpropham, isopropyl 3-chlorocarbanilate]
[2]
  inhibition at 916 g/ha: 8%
[3]
  inhibition at 750 g/ha: 0%
[4]; 750 g/ha
  inhibition at 750 g/ha: 0%
[4]; 1000 g/ha
  inhibition at 1000 g/ha: 0%
[5]; 750 g/ha
  inhibition at 750 g/ha: 0%
[5]; 1000 g/ha
  inhibition at 1000 g/ha: 0%
[6]
  inhibition at 500 g/ha: 70%
[7]
  inhibition at 250 g/ha: 10%
[8]; 125 g/ha
  inhibition at 125 g/ha: 20%
[8]; 250 g/ha
  inhibition at 250 g/ha: 30%
[8]; 1000 g/ha
  inhibition at 1000 g/ha: 50%
[9]; 125 g/ha
  inhibition at 125 g/ha: 10%
[9]; 250 g/ha
  inhibition at 250 g/ha: 0%
[9]; 500 g/ha
  inhibition at 500 g/ha: 70%

## COc1cc(OC)nc(NC(=O)NS(=O)(=O)c2ncccc2C(=O)N(C)C)n1 [Nicosulfuron, 2-[(4,6-dimethoxypyrimidin-2-ylcarbamoyl)sulfamoyl]-N,N-dimethyl nicotinamide]
[10]
  inhibition at 30 g/ha: 10%
[11]
  inhibition at 30 g/ha: 55%

## CCc1cccc(C)c1N(C(=O)CCl)[C@@H](C)COC [S-Metolachlor, 2-chloro-N-(6-ethyl-o-tolyl)-N-[(1S)-2-methoxy-1-methylethyl]acetamide]
[12]
  inhibition at 1000 g/ha: 59%
[13]
  inhibition at 1000 g/ha: 10%
[14]
  inhibition at 1000 g/ha: 75%
[15]
  inhibition at 1000 g/ha: 69%
[16]
  inhibition at 1000 g/ha: 45%
